According to PubChem BioAssay (NCI):
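Growth conditions: 96-well plates. Treatment: test compound, 48 hours, 5 concentrations. Analysis: linear interpolation between bracketing concentrations; unreached endpoints set to highest concentration. Definition used: TGI = concentration required for complete inhibition of growth.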 Where a SMILES comes first, the peptide text is derived from it. [ ]: non-standard residue; d: D form. The star is where a group is joined. X28 = COC1=CC(=O)N(C(=O)[C@@H](O*)C(C)C)[C@H]1Cc1ccccc1; NMeL = CN[C@@H](CC(C)C)C(=O)O; Cbz = O=C(OCc1ccccc1)*

Tests used:
Test in all cases: growth of human tumour cells (NCI), 48 h
HT29 colon = test system: HT29 colon
NCI-H522 lung = test system: NCI-H522 lung
T-47D breast = test system: T-47D breast
NCI-H460 lung = test system: NCI-H460 lung
HCT-15 colon = test system: HCT-15 colon
SN12C renal = test system: SN12C renal
SK-MEL-28 melanoma = test system: SK-MEL-28 melanoma
HL-60(TB) leukemia = test system: HL-60(TB) leukemia
M14 melanoma = test system: M14 melanoma
ACHN renal = test system: ACHN renal
SW-620 colon = test system: SW-620 colon
A549 NSCLC = test system: A549 NSCLC
NCI-H23 lung = test system: NCI-H23 lung
SK-OV-3 ovarian = test system: SK-OV-3 ovarian
786-0 renal = test system: 786-0 renal
OVCAR-8 ovarian = test system: OVCAR-8 ovarian
SK-MEL-2 melanoma = test system: SK-MEL-2 melanoma

SMILES | TGI (HT29 colon) [µM] | TGI (NCI-H522 lung) [µM] | TGI (T-47D breast) [µM] | TGI (NCI-H460 lung) [µM] | TGI (HCT-15 colon) [µM] | TGI (SN12C renal) [µM] | TGI (SK-MEL-28 melanoma) [µM] | TGI (HL-60(TB) leukemia) [µM] | TGI (M14 melanoma) [µM] | TGI (ACHN renal) [µM] | TGI (SW-620 colon) [µM] | TGI (A549 NSCLC) [µM] | TGI (NCI-H23 lung) [µM] | TGI (SK-OV-3 ovarian) [µM] | TGI (786-0 renal) [µM] | TGI (OVCAR-8 ovarian) [µM] | TGI (SK-MEL-2 melanoma) [µM]
COC1=CC(=O)N(C(=O)[C@@H](OC(=O)[C@@H]2CCCN2C(=O)[C@@H]2CCCN2C(=O)[C@H](CC(C)C)N(C)C(=O)[C@@H](NC(=O)[C@@H](NC(=O)OCc2ccccc2)C(C)C)C(C)C)C(C)C)[C@H]1Cc1ccccc1 (Cbz-VV[NMeL]PP-X28) | > 100 | > 100 | > 100 | > 100 | > 100 | > 100 | > 100 | > 100 | > 100 | > 100 | > 100 | > 100 | > 100 | > 100 | > 100 | > 100 | 28.6
OC(C1CCCC1=N/N=C1/CCCC1C(O)(C(F)(F)Cl)C(F)(F)Cl)(C(F)(F)Cl)C(F)(F)Cl (stereo unspecified) | > 10 | > 10 | > 10 | > 10 | > 10 | > 10 | > 10 | > 10 | > 10 | > 10 | > 10 | > 10 | > 10 | > 10 | > 10 | > 10 | > 10
CNC(=O)C(NC(=O)[C@H](CC(C)C)NC(=O)[C@@H](S)CCN1C(=O)N(C)C(C)(C)C1=O)C(C)(C)C (stereo partly specified) | > 100 | > 100 | > 100 | > 100 | > 100 | > 100 | > 100 | > 100 | > 100 | > 100 | > 100 | > 100 | > 100 | > 100 | > 100 | > 100 | > 100
C/C(=N\Nc1ncnc2ccccc12)c1ccccn1 | > 46.6 | 1.53 | 20.7 | 21.2 | > 56.8 | 6.71 | 45.6 | 10.7 | 33 | 8.46 | 45.6 | 32.6 | 16.4 | 4.03 | 12.7 | 2.41 | 33.9
Cc1cc(NS(=O)(=O)c2ccc(NC(=O)c3cccc4c(NNc5ccc(S(N)(=O)=O)cc5)c5ccccc5nc34)cc2)no1 | 73.2 | 72.8 | > 100 | > 100 | > 100 | > 100 | 89 | 76.5 | > 100 | > 100 | > 100 | > 100 | > 100 | > 100 | > 100 | > 100 | 61
CN(C)C(=O)CO/N=C1/C(c2c(O)[nH]c3ccccc23)=Nc2ccccc21 | > 100 | > 100 | > 100 | > 100 | > 100 | > 100 | > 100 | > 100 | > 100 | > 100 | > 100 | > 100 | > 100 | > 100 | > 100 | > 100 | > 100
Cc1ccc(C(=O)/C=C/N2CCN(c3cccc(C(F)(F)F)c3)CC2)cc1 | 35.8 | 35.4 | 76.5 | 47.8 | 29.5 | 36.3 | 38.4 | 60.2 | 30.5 | 60.5 | 49.8 | 53.6 | 31 | 95.5 | 34 | 38.9 | 34.8
CC1(C)C(C(=O)OC(C#N)c2cccc(OCC(=O)OCc3ccccc3)c2)C1(C)C (stereo unspecified) | > 100 | > 100 | > 100 | > 100 | > 100 | > 100 | > 100 | 22.9 | > 100 | > 100 | > 100 | > 100 | > 100 | > 100 | > 100 | > 100 | > 100
CNc1nc(=O)c(C#N)c(-c2ccc(C)cc2)s1 | > 100 | > 100 | > 100 | > 100 | > 100 | > 100 | > 100 | > 100 | > 100 | > 100 | > 100 | > 100 | > 100 | > 100 | > 100 | > 100 | > 100
Nc1nc(SCc2ccccc2[N+](=O)[O-])c2[nH]cnc2n1 | > 100 | > 67.5 | 74.1 | > 76.1 | > 100 | > 100 | > 100 | > 86.1 | > 100 | > 100 | > 100 | > 100 | > 100 | > 100 | > 100 | > 100 | 90.3
COc1cc(C(c2cc(OC)c(OC)c(OC)c2)N2C(=O)CCC2C(=O)O)cc(OC)c1OC (stereo unspecified) | > 100 | > 100 | > 100 | > 100 | > 100 | > 100 | > 100 | > 100 | > 100 | > 100 | > 100 | > 100 | > 100 | > 100 | > 100 | > 100 | > 100
COc1ccc(C2c3c(-c4ccccc4)nn(-c4ccccc4)c3Oc3ncn(N)c(=N)c32)cc1OC (stereo unspecified) | 4.32 | 4.15 | 4.48 | 3.27 | 4.06 | 8.45 | 4.29 | > 100 | 4.17 | 3.69 | > 25 | 4.81 | 6.66 | 21.6 | 3 | 5.89 | 3.51
Cc1cc2nc(NS(=O)(=O)c3cc(C)c(Cl)cc3S)[nH]c2cc1C | > 100 | > 100 | > 100 | 43.1 | > 100 | > 100 | > 100 | > 100 | > 100 | > 100 | > 100 | > 100 | > 100 | > 100 | > 100 | > 100 | > 100
